Test [1] concerns the target T1, Bone morphogenetic protein receptor type-2 (Homo sapiens) (UniProt Q13873).
T1 sequence (whole entry): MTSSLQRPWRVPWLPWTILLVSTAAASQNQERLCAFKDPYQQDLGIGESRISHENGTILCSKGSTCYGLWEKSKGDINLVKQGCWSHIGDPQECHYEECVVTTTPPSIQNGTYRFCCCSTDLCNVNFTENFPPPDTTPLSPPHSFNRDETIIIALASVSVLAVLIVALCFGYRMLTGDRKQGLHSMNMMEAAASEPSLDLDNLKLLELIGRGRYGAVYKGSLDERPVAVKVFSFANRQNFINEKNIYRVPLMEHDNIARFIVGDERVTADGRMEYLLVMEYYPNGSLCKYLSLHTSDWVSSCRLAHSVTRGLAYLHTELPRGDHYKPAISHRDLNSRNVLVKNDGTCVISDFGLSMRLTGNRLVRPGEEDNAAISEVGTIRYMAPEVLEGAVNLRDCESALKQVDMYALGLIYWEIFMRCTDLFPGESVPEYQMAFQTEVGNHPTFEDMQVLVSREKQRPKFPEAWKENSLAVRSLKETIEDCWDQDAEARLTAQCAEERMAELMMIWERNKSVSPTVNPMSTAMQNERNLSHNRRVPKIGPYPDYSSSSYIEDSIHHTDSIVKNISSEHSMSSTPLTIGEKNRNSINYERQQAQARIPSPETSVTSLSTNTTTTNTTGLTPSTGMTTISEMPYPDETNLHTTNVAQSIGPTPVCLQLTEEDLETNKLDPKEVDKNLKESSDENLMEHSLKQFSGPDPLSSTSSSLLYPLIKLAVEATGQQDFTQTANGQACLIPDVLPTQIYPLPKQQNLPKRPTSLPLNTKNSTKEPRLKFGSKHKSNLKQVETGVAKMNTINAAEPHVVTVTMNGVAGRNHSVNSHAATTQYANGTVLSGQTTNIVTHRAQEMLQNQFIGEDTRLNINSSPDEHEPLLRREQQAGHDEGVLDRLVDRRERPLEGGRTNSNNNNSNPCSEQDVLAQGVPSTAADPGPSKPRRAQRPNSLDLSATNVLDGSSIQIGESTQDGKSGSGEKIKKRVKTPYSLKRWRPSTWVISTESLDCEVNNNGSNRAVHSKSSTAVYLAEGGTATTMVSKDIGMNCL
Description: Selectivity interaction (KinomeScan (DiscoverX)) EUB0001619a BMPR2. Particulars: at 1 µM.

In test [2] the target is Tyrosine-protein kinase Yes (Homo sapiens) (UniProt P07947). Description: Selectivity interaction (KinomeScan (DiscoverX)) EUB0001619a YES1. The conditions noted are these: at 1 µM.
In test [3] the target is Tyrosine-protein kinase Srms (Homo sapiens) (UniProt Q9H3Y6). In words: Selectivity interaction (KinomeScan (DiscoverX)) EUB0001619a SRMS. The conditions noted are these: at 1 µM.
The target of test [4] is Mitogen-activated protein kinase kinase kinase 9 (Homo sapiens) (UniProt P80192). In words: Selectivity interaction (KinomeScan (DiscoverX)) EUB0000607a MAP3K9. The conditions noted are these: at 10 µM.
Test [5] deals with T2, Aurora kinase C (Homo sapiens) (UniProt Q9UQB9).
T2 sequence (whole entry): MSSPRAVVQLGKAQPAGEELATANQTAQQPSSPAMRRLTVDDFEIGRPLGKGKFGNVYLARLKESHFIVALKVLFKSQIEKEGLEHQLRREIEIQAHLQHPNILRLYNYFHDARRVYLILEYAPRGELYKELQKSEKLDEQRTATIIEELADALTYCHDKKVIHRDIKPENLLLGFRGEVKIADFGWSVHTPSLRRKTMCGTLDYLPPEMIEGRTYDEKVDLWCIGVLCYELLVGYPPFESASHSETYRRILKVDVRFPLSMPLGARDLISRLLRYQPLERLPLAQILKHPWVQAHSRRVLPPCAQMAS
Description: Selectivity interaction (SelectScreen profiling (Invitrogen)) EUB0000607a AURKC. The conditions noted are these: at 2 µM.

The target of test [6] is T3, Hormonally up-regulated neu tumor-associated kinase (Homo sapiens) (UniProt P57058).
T3 sequence (whole entry): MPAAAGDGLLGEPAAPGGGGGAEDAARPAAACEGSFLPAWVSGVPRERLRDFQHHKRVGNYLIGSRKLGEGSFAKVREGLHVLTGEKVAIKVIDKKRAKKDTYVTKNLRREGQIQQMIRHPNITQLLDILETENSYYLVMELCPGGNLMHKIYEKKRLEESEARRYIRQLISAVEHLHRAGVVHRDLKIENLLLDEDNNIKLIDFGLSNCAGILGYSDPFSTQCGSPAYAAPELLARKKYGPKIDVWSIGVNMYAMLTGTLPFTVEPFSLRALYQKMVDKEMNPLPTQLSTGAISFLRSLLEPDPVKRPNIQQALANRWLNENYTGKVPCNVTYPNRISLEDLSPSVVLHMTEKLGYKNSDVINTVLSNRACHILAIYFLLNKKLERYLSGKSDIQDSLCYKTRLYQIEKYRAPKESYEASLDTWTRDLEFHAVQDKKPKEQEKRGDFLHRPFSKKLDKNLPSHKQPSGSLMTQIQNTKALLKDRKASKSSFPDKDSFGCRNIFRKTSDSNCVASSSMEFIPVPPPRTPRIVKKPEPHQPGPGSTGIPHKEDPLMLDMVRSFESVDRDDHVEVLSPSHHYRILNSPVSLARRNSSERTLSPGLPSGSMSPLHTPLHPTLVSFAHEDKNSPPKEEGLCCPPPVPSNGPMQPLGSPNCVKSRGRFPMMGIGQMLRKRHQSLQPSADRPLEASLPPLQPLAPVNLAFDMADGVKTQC
In words: Selectivity interaction (Ambit KINOMEscan and KiNATiv profiling in Jurkat cells) EUB0000090b HUNK. Format: cell-based. The conditions noted are these: at 1 µM.

The target in test [7] is Serine/threonine-protein kinase PAK 4 (Homo sapiens, UniProt O96013). Description: Selectivity interaction (KinomeScan (DiscoverX)) EUB0001049a PAK4. Particulars: at 1 µM.
The target in test [8] is Cyclin-dependent kinase 5/CDK5 activator 1 (Homo sapiens) (UniProt Q00535+Q15078). Description: Selectivity interaction (Upstate Kinase Profiler service (Millipore)) EUB0000056c CDK5. Format: protein-complex assay. The conditions noted are these: at 1 µM.
The next test deals with D(1A) dopamine receptor (Homo sapiens, UniProt P21728). Description: Selectivity interaction (Panel of kinases, GPCRs, ion channels and transporters (enzymatic assay)) EUB0000266bCl DRD1.
Chain of D(1A) dopamine receptor (P21728 whole entry): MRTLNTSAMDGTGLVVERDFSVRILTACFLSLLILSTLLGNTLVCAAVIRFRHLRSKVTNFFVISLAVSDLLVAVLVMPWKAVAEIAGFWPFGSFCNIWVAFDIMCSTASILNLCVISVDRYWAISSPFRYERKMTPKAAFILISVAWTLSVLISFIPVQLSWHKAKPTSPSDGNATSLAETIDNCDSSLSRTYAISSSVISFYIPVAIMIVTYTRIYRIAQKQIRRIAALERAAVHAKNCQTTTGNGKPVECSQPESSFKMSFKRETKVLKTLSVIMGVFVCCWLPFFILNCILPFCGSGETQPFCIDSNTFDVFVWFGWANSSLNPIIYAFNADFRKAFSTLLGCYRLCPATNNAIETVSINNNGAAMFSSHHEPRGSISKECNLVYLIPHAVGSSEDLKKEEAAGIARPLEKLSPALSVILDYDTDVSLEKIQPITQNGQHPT

Chain of Mitogen-activated protein kinase kinase kinase 9 (Homo sapiens) (P80192 whole entry, looked up): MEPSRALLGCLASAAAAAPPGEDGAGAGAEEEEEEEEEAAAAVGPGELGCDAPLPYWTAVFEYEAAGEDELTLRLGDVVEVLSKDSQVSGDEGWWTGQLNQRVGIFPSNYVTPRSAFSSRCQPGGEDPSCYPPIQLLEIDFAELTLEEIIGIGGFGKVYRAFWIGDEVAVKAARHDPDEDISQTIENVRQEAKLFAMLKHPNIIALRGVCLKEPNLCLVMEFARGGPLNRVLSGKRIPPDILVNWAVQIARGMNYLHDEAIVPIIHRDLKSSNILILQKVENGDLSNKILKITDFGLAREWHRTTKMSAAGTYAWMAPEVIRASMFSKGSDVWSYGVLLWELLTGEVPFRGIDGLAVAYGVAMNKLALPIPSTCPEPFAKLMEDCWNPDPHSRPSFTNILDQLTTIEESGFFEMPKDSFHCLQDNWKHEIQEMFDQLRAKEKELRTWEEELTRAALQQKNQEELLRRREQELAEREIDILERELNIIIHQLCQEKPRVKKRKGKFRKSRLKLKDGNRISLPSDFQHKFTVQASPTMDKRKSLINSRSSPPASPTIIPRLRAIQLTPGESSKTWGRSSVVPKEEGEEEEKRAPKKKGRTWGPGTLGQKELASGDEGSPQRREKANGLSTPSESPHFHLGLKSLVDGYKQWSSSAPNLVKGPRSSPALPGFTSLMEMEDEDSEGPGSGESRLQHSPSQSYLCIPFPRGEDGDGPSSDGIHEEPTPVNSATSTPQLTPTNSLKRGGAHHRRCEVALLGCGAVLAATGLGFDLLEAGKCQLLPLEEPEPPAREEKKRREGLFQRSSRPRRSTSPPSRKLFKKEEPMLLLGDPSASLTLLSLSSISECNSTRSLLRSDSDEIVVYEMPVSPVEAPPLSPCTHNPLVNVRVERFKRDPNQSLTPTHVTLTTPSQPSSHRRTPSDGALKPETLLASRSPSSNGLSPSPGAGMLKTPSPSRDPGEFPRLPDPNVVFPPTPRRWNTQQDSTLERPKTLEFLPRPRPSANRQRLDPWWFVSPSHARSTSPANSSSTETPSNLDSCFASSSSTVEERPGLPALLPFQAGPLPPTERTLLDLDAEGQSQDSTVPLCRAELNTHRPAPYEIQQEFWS
Chain of Tyrosine-protein kinase Srms (Homo sapiens) (Q9H3Y6 whole entry): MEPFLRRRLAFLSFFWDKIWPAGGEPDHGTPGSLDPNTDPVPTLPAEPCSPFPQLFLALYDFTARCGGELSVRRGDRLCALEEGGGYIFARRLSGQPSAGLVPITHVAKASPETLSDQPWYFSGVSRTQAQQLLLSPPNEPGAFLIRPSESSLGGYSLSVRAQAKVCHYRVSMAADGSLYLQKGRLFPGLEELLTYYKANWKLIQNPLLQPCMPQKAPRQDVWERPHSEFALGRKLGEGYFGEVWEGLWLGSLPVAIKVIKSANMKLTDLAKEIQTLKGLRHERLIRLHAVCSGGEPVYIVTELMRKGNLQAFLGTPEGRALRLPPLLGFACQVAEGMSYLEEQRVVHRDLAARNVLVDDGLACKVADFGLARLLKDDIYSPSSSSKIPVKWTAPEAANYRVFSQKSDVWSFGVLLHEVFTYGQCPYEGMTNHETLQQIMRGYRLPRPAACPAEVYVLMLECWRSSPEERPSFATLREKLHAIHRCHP
Chain of Serine/threonine-protein kinase PAK 4 (O96013 whole entry, looked up): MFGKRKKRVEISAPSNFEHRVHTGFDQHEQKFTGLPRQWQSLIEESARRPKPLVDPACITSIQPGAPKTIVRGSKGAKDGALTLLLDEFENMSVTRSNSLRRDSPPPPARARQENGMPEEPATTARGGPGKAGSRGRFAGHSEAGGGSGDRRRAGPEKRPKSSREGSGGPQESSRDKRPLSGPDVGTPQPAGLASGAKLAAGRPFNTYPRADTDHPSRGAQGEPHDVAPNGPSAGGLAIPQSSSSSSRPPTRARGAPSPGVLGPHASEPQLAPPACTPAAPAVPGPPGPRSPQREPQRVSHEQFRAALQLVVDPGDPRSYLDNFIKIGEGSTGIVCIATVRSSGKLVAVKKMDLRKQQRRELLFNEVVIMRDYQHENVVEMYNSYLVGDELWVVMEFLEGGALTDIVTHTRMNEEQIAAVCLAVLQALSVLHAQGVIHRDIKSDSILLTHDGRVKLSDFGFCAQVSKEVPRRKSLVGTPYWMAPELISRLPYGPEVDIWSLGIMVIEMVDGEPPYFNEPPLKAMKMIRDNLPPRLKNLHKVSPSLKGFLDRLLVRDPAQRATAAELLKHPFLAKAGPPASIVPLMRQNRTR
Chain of Cyclin-dependent kinase 5/CDK5 activator 1 (Homo sapiens) (Q00535 whole entry): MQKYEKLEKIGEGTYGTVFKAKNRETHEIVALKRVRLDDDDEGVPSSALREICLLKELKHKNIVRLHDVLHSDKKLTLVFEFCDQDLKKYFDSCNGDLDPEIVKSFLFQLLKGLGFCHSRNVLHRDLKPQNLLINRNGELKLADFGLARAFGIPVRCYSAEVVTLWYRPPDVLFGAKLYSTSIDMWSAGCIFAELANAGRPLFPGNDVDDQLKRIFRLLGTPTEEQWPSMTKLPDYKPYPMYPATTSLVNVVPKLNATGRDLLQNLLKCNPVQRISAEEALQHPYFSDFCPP
Chain of Cyclin-dependent kinase 5/CDK5 activator 1 (Homo sapiens) (Q15078 99-307 partner limits assumed): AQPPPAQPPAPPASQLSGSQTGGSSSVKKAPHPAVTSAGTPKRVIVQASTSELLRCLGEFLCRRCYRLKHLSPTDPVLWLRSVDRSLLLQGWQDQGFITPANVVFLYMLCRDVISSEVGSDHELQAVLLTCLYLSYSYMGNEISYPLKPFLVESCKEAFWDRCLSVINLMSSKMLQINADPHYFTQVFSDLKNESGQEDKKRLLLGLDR
Chain of Tyrosine-protein kinase Yes (Homo sapiens) (P07947 2-543 limits assumed): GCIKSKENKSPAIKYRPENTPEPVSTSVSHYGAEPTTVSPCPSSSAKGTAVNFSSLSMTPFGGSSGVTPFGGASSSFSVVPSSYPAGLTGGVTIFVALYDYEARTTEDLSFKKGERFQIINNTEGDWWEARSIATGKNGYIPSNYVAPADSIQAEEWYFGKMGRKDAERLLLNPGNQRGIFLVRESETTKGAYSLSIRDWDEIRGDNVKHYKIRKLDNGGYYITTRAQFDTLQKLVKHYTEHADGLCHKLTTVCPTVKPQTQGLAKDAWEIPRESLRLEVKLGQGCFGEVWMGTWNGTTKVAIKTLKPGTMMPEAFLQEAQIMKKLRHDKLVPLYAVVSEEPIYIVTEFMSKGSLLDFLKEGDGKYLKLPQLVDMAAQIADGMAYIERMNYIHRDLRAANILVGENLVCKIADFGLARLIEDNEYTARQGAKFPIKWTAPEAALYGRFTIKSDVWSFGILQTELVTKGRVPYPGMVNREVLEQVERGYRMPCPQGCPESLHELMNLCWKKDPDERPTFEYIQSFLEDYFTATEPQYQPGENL

Take `N#Cc1cccc(-c2c[nH]c3ncnc(N4CCOCC4)c23)c1`: the % of control in test [1] amounted to 80%; in test [2], 95%; in [3] it was 94%. With `CNC(=O)Nc1ccc(-c2nc(N3CC4CCC(C3)O4)c3cnn(C4CCC5(CC4)OCCO5)c3n2)cc1`, the % of control in test [4] was 97%. In [5], this compound displayed a % of inhibition of 4%.

`CN(C)C/C=C/C(=O)Nc1ccc(C(=O)N2CCCC(Nc3ncc(Cl)c(-c4c[nH]c5ccccc45)n3)C2)cc1` (centres undefined) displayed a % of control in test [6] of 80%. On to `COc1cc(Nc2nc(C)cc(-c3cnn4nc(OC)ccc34)n2)cc(C(F)(F)F)c1`, for which, in test [7], the % of control is 88%.

Take `Cc1ccc(-c2ccc3c(ccc4sc5c(c43)NC[C@@H](C)NC5=O)n2)cn1`: the % of inhibition in test [8] turned out to be 62%.

`CCn1c(-c2nc3cc(C(=O)N4CCCC(N)C4)ccc3n2C)cc2ccccc21` (centres undefined) came in with a pXC50 at D(1A) dopamine receptor of 4.6 M.

The values are drawn from ChEMBL document CHEMBL5465560, “Selectivity Literature for EUbOPEN Chemogenomic Library” (2024).
